What was measured:
human hepatocytes = assay: Metabolic stability in hepatocytes; type: in vitro ADME; conditions: 1 μM, 1×10^6 cells/mL, 0-240 min
Protocol: (§1) Test compounds are incubated in human hepatocytes and stability is assessed from the substrate […] approach. Test compounds are dissolved in dimethyl sulfoxide (DMSO) to create a 10 mM Stock, and then further diluted to create a 1000× Working Stock of 1 mM with DMSO in 96-well plates for test compounds and the positive control (midazolam). Vials containing cryopreserved hepatocytes are removed from the liquid nitrogen tank and immediately immersed in a 37° C. water bath. The vials are shaken gently until the contents had thawed and were then immediately emptied into 48 mL of pre-warmed HT Medium in a 50 mL conical tube. Cells remaining in the vial are resuspended with 1.0 mL of pre-warmed HT Medium and added to the conical tube. The tube is capped and then gently inverted several times to resuspend the hepatocytes. The cell suspension is centrifuged at 50×g at room temperature for 5 minutes and the supernatant discarded. The cell pellet is loosened by gently swirling the centrifuge tube and is re-suspended in 4 mL of warm Dulbecco's Modified Eagle medium (DMEM). Cell density is determined by a cell counter by Nexcelom, and DMEM medium is added to obtain a target density of 1×10^6 cells/mL. The assay is carried out in 96-well microtiter plates. Test Compounds are incubated at 1 μM with 1×10^6 cells/mL hepatocytes in DMEM for 0, 30, 60, 120 and 240 minutes. The incubation is carried out with gentle shaking at 37° C. under a humid atmosphere of 95% air/5% CO2. The volume of the incubation mixture is 37 μL with a final 0.1% DMSO. At each of the time points, the incubation is stopped by adding 150 μL quenching solution (100% acetonitrile, 0.1% formic acid containing bucetin as an internal standard for positive ESI mode). Subsequently, the mixtures are vortexed for 20 min and centrifuged at 4,000 RPM at 10° C. The supernatant (80 μL) is transferred to a clean 96-well plate and analyzed by LC-MS/MS. Midazolam at 1 μM with a final 0.1% DMSO is included as a positive control to verify assay performance. The percent parent remaining, intrinsic and predicted hepatic clearance and t1/2 are calculated. All samples are analyzed by LC-MS/MS using an AB Sciex API 4000 instrument, coupled to a Shimadzu LC-20AD LC Pump system. Separation is achieved using a Waters Atlantis T3 dC18 reverse phase HPLC column (20 mm×2.1 mm) at a flow rate of 0.5 mL/min. The mobile phase consisted of 0.1% formic acid in water (solvent A) and 0.1% formic acid in 100% acetonitrile (solvent B). Elution conditions are detailed below.
(§2) The ion optics of each test compound are optimized for their declustering potential (DP), […] (CE), collision-cell exit potential (CXP) and used in a selected ion monitoring experiment in the positive ion mode. The peak area ratio of each test compound to internal standard is then evaluated for stability. The extent of metabolism is calculated based on the disappearance of the test compound, compared to its initial concentration. The initial rates of clearance of the test compound are calculated using the linear regression plot of semi-log % remaining of the compound versus time. The elimination rate constant (k) of the linear regression plot is then used to determine t1/2 and the intrinsic clearance (CLint) using the following formula, where Chepatocyte (million cells/mL) is the cell density of the incubation: k=−slope t1/2=0.693/k CLint=k/Chepatocyte
(§3) Test compounds were incubated in human hepatocytes and stability was assessed from the substrate […] approach. Test compounds were dissolved in dimethyl sulfoxide (DMSO) to create a 10 mM Stock, and then further diluted to create a 1000× Working Stock of 1 mM with DMSO in 96-well plates for test compounds and the positive control (midazolam). Vials containing cryopreserved hepatocytes were removed from the liquid nitrogen tank and immediately immersed in a 37° C. water bath. […]

[1] = Metabolic stability in hepatocytes; type: in vitro ADME; conditions: cryopreserved human hepatocytes (suspension), 1×10^6 cells/mL, intrinsic clearance, read-out: hHep CLint
Protocol: as §1, §2, §3

human GLP-1R receptor = target: T1, human GLP-1R receptor (Homo sapiens, UniProt P43220); assay: GLP-1R low expression cell assay (cAMP TR-FRET, CHO-K1_hGLP-1Rlow_clone10); type: cell-based; conditions: CHO-K1_hGLP-1Rlow_clone10 cells, percent activation relative to control GLP-1 peptide
T1 construct: expressed in transfected cells
T1 sequence (P43220 24-463): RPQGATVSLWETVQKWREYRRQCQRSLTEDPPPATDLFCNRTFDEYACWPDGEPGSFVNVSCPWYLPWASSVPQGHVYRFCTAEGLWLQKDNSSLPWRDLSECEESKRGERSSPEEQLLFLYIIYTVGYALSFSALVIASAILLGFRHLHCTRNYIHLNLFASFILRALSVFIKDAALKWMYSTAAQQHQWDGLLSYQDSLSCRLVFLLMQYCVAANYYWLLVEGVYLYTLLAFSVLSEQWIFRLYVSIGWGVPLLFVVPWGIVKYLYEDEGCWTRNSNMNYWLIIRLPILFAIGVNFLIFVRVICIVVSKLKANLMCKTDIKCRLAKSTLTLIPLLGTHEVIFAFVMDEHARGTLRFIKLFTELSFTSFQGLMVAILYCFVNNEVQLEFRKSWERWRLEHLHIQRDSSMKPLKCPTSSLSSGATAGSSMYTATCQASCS
Protocol: Stable cell lines expressing high and low GLP-1R surface expression are generated in CHO-K1 cells transfected (Fugene 6) with a puromycin selectable DNA plasmid encoding human GLP-1R receptor (accession number: NM_002062.5) under control of an EF1A promoter. Transfected cells are seeded into 24-well plates (9,000 cells/well) containing complete medium and incubated in a humidified incubator at 37° C. with 5% carbon dioxide. After overnight incubation, medium is replaced with complete medium supplemented with puromycin (6 μg/mL) and refreshed every 2-3 days to select for stably transfected cells. Individual pools of selected cells are expanded prior to analysis for responsiveness to GLP-1 control peptide using a TR-FRET assay to detect cAMP (LANCE Ultra cAMP Assay, Perkin Elmer). Briefly, cells are collected in Versene solution, plated in 384-well plates (1,000 cells/well) and combined with serially diluted GLP-1R control peptide (10 nL) using an acoustic dispenser (ECHO). Plates are incubated for 30 minutes at 25° C. prior to the addition of EU-cAMP tracer (5 μL) and Ulight-anti-cAMP (5 μL) reagents to each well, followed by 15 minutes incubation at 25° C. TR-FRET signal is detected using an EnVision Multimode Plate Reader (excitation=320 nm; emission=615 and 655 nm). Dose-response curves are used to generate EC50 values as a measure of responsiveness to the GLP-1R control peptide. Selected cell lines are monitored for responsiveness over multiple passages to ensure stability. […] Briefly, GLP-1R expression is analyzed by flow cytometry using a fluorescein-labeled Exendin-4 peptide fluorescent probe (FLEX). Cells are harvested in Versene solution and washed 3-times with PBS+0.5% BSA before incubation with FLEX reagent (10 μM) for 2 hours at room temperature. After incubation, cells are washed 3-times in PBS+0.5% BSA before final resuspension in PBS prior to analysis by flow cytometry to measure FLEX mean fluorescence intensity (MFI) as a measure of GLP-1R expression on the cell surface.
For compound testing in the CHO-K1_hGLP-1Rlow_clone10 cell lines, cells are seeded in 384-well plates (1,000 cells/well). Test compounds are serially diluted in DMSO (10-point, 3-fold dilution), added to wells using an ECHO dispenser (10 nL/well) and plates are centrifuged for 1 min and agitated for 2 min at room temperature prior to 30-minute incubation at 25° C. After incubation, Eu-cAMP (5 μL) and Ulight-anti-cAMP (5 μL) reagents are added to each well, followed by centrifugation for 1 minute, agitation for 2 minutes at room temperature, and final incubation of the plates at 25° C. for 15 minutes. Plates are read using an EnVision microplate reader (excitation=320 nm; emission=615 and 655 nm). Dose-response curves are generated from duplicate wells based on percent activation calculated relative to a control GLP-1 peptide agonist that was run in parallel. EC50 values are determined by fitting percent activation as a function of compound concentration using the Hill equation (XLfit).
Stable cell lines expressing high and low GLP-1R surface expression were generated in CHO-K1 cells transfected (Fugene 6) with a puromycin selectable DNA plasmid encoding human GLP-1R receptor (accession number: NM_002062.5) under control of an EF1A promoter. Transfected cells were seeded into 24-well plates (9,000 cells/well) containing complete medium and incubated in a humidified incubator at 37° C. with 5% carbon dioxide. After overnight incubation, medium was replaced with complete medium supplemented with puromycin (6 μg/mL) and refreshed every 2-3 days to select for stably transfected cells. Individual pools of selected cells were expanded prior to analysis for responsiveness to GLP-1 control peptide using a TR-FRET assay to detect cAMP (LANCE Ultra cAMP Assay, Perkin Elmer).

hHep t1/2 (human hepatocytes) [h] | CLint scaled at 1 μM [1] [mL/min/kg] | EC50 (human GLP-1R receptor) [nM] | Compound
> 8 | 5.01 | 50 to 100 | N#Cc1ccc(COc2cccc(N3CCN(Cc4nc5ccc(C(=O)O)cc5n4C[C@@H]4CCO4)[C@H]4CC43)n2)c(F)c1 (single isomer, unassigned) [Compound 42]
> 8 | 5.01 | > 100 | N#Cc1ccc(COc2ccnc(N3CCN(Cc4nc5ccc(C(=O)O)cc5n4Cc4cncs4)[C@H]4C[C@H]43)n2)c(F)c1 [Compound 19, 2-((5-(4-((4-Cyano-2-fluorobenzyl)oxy)pyrimidin-2-yl)-2,5-diazabicyclo[4.1.0]heptan-2-yl)methyl)-1-(thiazol-5-ylmethyl)-1H-benzo[d]imidazole-6-carboxylic Acid]
> 8 | 5.01 | – | CCn1nncc1Cn1c(CN2CCN(c3cccc(OCc4ccc(C#N)cc4F)n3)C3C[C@@H]32)nc2ccc(C(=O)O)cc21 (some centres unmarked) [Compound 44, 2-((5-(6-((4-Cyano-2-fluorobenzyl)oxy)pyridin-2-yl)-2,5-diazabicyclo[4.1.0]heptan-2-yl)methyl)-1-((1-ethyl-1H-1,2,3-triazol-5-yl)methyl)-1H-benzo[d]imidazole-6-carboxylic Acid]
